Test results from PMC3103057 (Journal of medicinal chemistry, 2011).

What was measured:
[1] = system: wildtype and homozygous mutant N370S GC fibroblasts; assay: Chaperone activity: translocation of GC to the lysosome in fibroblasts; assay type: cell-based, human; settings: for amount of GC localized to the lysosome: 1 nM to 25 uM, five days incubation, wildtype and mutant fibroblasts; for lysosomal GC protein after treatment: 10 uM, wildtype and N370S GC fibroblasts, GC and LAMP1 antibody staining
[2] = biological target: T1, N370S glucocerebrosidase (GC) in tissue homogenate (Homo sapiens, UniProt P04062, N409S); assay type: biochemical; settings: for reduction of activity (fold, relative to 26ad): N370S tissue homogenate AC50 compared with parent quinazoline 26ad
T1 sequence (P04062 40-536 N409S): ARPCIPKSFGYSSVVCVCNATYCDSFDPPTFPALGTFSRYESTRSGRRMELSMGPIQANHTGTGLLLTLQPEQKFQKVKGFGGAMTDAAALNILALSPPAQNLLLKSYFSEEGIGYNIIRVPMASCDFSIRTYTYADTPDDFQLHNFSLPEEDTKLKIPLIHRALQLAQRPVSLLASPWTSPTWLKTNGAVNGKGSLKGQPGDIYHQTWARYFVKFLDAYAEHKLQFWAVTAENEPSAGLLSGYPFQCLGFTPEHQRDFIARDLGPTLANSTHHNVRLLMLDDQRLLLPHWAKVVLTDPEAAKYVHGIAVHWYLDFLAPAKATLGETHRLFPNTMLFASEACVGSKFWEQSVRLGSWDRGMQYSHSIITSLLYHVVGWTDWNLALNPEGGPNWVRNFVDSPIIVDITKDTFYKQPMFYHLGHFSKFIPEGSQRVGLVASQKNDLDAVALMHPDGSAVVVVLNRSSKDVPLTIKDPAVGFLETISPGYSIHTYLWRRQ

purified GC = assay: Purified enzyme assays of GC activity without exogenous cofactors; assay type: biochemical; settings: no exogenous activating cofactors

Row | Structure (SMILES) | amount of GC localized to the lysosome [1] | reduction of activity (fold, relative to 26ad) [2] | further results
1 | O=S(=O)(c1ccc2ccccc2c1)N1CCN(c2nc(-c3cccs3)nc3ccccc23)CC1 [Compound 14] | clear increase of the amount of GC localized to the lysosome |  | lysosomal GC protein after treatment [1]: increased lysosomal GC protein
2 | Cc1ccc(S(=O)(=O)N2CCN(c3nc(-c4cccs4)nc(C)c3C)CC2)cc1 [Compound 76, 4,5-dimethyl-2-(thiophen-2-yl)-6-(4-tosylpiperazin-1-yl)pyrimidine] |  | 10 times | 
3 | O=S(=O)(c1ccc2c(c1)OCCO2)N1CCN(c2nc(-c3cccs3)nc3ccccc23)CC1 [Compound 26bs, 4-(4-(2,3-dihydrobenzo[b][1,4]dioxin-6-ylsulfonyl)piperazin-1-yl)-2-(thiophen-2-yl)quinazoline] | clear increase of the amount of GC localized to the lysosome |  | 
4 | Cc1ccc(S(=O)(=O)N2CCN(c3nc(-c4cccs4)nc4ncccc34)CC2)cc1 [Compound 73, 2-(thiophen-2-yl)-4-(4-tosylpiperazin-1-yl)pyrido[2,3-d]pyrimidine] |  | at least 10 times | 
5 | O=S(=O)(c1ccc(Cl)cc1)N1CCN(c2nc(-c3cccs3)nc3ccccc23)CC1 [Compound 10, 4-(4-(4-chlorophenylsulfonyl)piperazin-1-yl)-2-(thiophen-2-yl)quinazoline] |  |  | activity in purified enzyme assays of GC compared with tissue homogenate (purified GC): greatly diminished
6 | Cc1ccc(S(=O)(=O)N2CCN(c3nc(-c4cccs4)nc4cccnc34)CC2)cc1 [Compound 72, 2-(thiophen-2-yl)-4-(4-tosylpiperazin-1-yl)pyrido[3,2-d]pyrimidine] |  | at least 10 times | 
7 | OC[C@H]1CNC[C@@H](O)[C@@H]1O [Isofagomine, reference compound] |  |  | lysosomal GC protein after treatment [1]: increased lysosomal GC protein
8 | Cc1ccc(S(=O)(=O)N2CCN(c3nc(-c4cccs4)nc4ccccc34)CC2)cc1 [Compound 26ad, 4-(4-(4-methylphenylsulfonyl)piperazin-1-yl)-2-(thiophen-2-yl)quinazoline] | clear increase of the amount of GC localized to the lysosome |  | IC50 ([2]; "blue" GC enzyme assay, tissue homogenate): 320 nM
9 | COc1ccccc1S(=O)(=O)N1CCN(c2nc(-c3cccs3)nc3ccccc23)CC1 [Compound 26ai, 4-(4-(2-methoxyphenylsulfonyl)piperazin-1-yl)-2-(thiophen-2-yl)quinazoline] | clear increase of the amount of GC localized to the lysosome |  | 
10 | Cc1ccc(S(=O)(=O)N2CCN(c3ccnc(-c4cccs4)n3)CC2)cc1 [Compound 74, 2-(thiophen-2-yl)-4-(4-tosylpiperazin-1-yl)pyrimidine] |  | 32 times | 
